The subject of data set [1] is OT-1 transgenic splenocytes. Description: In vitro stimulation of OT-1 splenocytes with peptide antigen in the presence of TLR agonists, surface markers by flow cytometry. Details: key to 4-1BB / PD-1 / LAG3 / CD160 / CD244.2 / BTLA / VISTA: “+” means increase; “−” means decrease; “=” means no change; “=/+” or “=/−” means the change is there but not significant; “=/+” or “=/−” means the change is there but not significant. As to conditions: for 4-1BB / BTLA / CD160 / CD244.2 / LAG3 / PD-1 / VISTA: OT-1 splenocytes, high affinity antigen plus TLR agonist, versus antigen alone; for T cell activation measured by 4-1BB / PD-1 expression on activated T cells / levels of tested checkpoint markers (BTLA, VISTA, CD160, CD244.2): in words; for T cell activation measured by 4-1BB: SIINFEKL plus TLR agonist; for PD-1 expression on activated T cells: SIINFEKL plus TLR agonist versus antigen alone, up to 4 days; for levels of tested checkpoint markers (BTLA, VISTA, CD160, CD244.2): high affinity antigen plus TLR agonist versus no TLR agonist. In kind it is cell-based, mice. The method, then: T cell activation was measured by the levels of marker 4-1BB (a/k/a CD137, a member of the TNF receptor superfamily). The level of PD-1 expression was also assessed in these cells (FIG. 1B).
There was no difference in LAG3 expression between the control cells and cells treated with any of the assayed TLR agonists.
OT-1 transgenic splenocytes were treated with high affinity antigen in combination with Pam3CSK4 (TLR1 and 2 agonist), Gardiquimod (TLR7 agonist) or no TLR agonist and the levels of different checkpoint markers or T cell stimulation (measured by 4-1BB, FIG. 5) were assayed. The checkpoint markers BTLA (FIG. 6), VISTA (FIG. 7), CD160 (FIG. 8) and CD244.2 (FIG. 9) were assayed.
TLR stimulation at the time of T-cell activation in vitro affects expression of PD-1. Given that CpG-rich DNA is a TLR9 agonist and Lm is a TLR2 agonist, we questioned whether TLR stimulation with different ligands could similarly affect expression of different T-cell checkpoint inhibitors. […] OT-1 splenocytes were stimulated in vitro with peptides of different affinity for MHC class I (high-affinity SIINFEKL peptide (SEQ ID NO:1, OVA), moderate-affinity SIINTEKL peptide (SEQ ID NO:2, FT), or low-affinity SIINFEKP peptide (SEQ ID NO:7, LP)), alone or in the presence of different TLR ligands (TLR 1/2 (Pam3CSK4), TLR 3 (Poly I:C), TLR 4 (MPLAs), TLR 7 (Gardiquimod), TLR 7/8 (R848), or TLR 9 (ODN1826)). […] Similarly, LAG-3 expression increased by day 3, but was not affected by the presence of different TLR ligands. […] This reduction in PD-1 expression was observed most with the high-affinity SIINFEKL (SEQ ID NO:1) epitope, but also observed following activation with lower affinity epitopes. Given these findings, we evaluated expression of multiple other T-cell checkpoint molecules following T-cell activation in the presence of TLR ligands. […] Cytotoxic T-lymphocyte-associated protein 4 (CTLA-4) expression, however, was increased in the presence of TLR1/2 agonist. Similar results were found activating OT-1 cells with the lower affinity FT (SIINTEKL peptide (SEQ ID NO:2)), LP (SIINFEKP peptide (SEQ ID NO:7), or LY (SIINFEKY, SEQ ID NO:8) epitopes (FIG. 19).
In vitro T-cell stimulation: Spleens were collected from OT-1 mice, processed through a mesh screen, and splenocytes were isolated by centrifugation after red blood cell osmotic lysis with ammonium chloride/[…] lysis buffer (0.15 M NH4Cl, 10 mM KHCO3, 0.1 mM EDTA). Splenocytes were cultured at 2×10^6/mL in RPMI 1640 medium supplemented with L-glutamine, 10% fetal calf serum (FCS), 200 U/mL penicillin/streptomycin, 1% sodium pyruvate, 1% HEPES, 50 μM β-MeOH, and 2 μg/mL of the designated peptide. TLR agonists were all purchased from InvivoGen (San Diego, CA) and added one hour before peptides at the following optimal concentrations based on preliminary studies and previously reported results: 300 ng/ml Pam3CSK4, 10 μg/mL Poly(I:C) HMW, 10 μg/ml MPLAs, 3 μg/ml Gardiquimod, 10 μg/ml R848, 5 μM ODN 1826. At the time points indicated, cells were stained, fixed for 15 min at 4° C. in cytofix (BD Biosciences (BD), San Jose, CA; 554655), and frozen in FCS+10% DMSO. After all time points were collected, cells from all times were thawed, rinsed and resuspended in PBS+3% FCS+1 mM EDTA and analyzed by flow cytometry. Cells were stained for 30 min at 4° C. in a 1:4 dilution of brilliant stain buffer (BD 563794) in PBS+3% FCS+1 mM EDTA. In order to assess co-stimulation, blocking antibodies for CD80 (0.6 μg/mL), CD86 (0.25 μg/mL) or OX40L (0.6 μg/mL) were added 1 hour prior to antigen.
In general terms: In flow cytometry, cells or beads pass a laser one at a time.

The subject of data set [2] is CD8+ OT-1 T cells. As to conditions: for Eomesodermin (EOMES gene) expression / expression of genes associated with T-cell regulation (including PD-1 and IL-10): 24 to 72 hours, versus peptide alone.
Procedure: CD8+ OT-1 T cells were then purified and evaluated for gene expression changes by RNA sequencing (RNA-seq).
RNA preparation and sequencing: Cells were stimulated in vitro as above, and at the times indicated T cells were isolated via immunomagnetic negative selection (StemCell, Vancouver, Canada 19853), RNA was collected as per the manufacturers instruction (Direct-zol RNA MiniPrep Plus w/TRI Reagent, Zymo Research), treated with DNAse (TURBO DNA-free Kit, Invitrogen), and stored at −80° C. until analysis at the UW-Madison Biotechnology Center. Total RNA was verified for purity and integrity via a NanoDrop2000 Spectrophotometer and Agilent 2100 BioAnalyzer, respectively. Samples that met the Illumina sample input guidelines were prepared using the Illumina® TruSeq® Stranded mRNA Sample Preparation kits (Illumina Inc., San Diego, California, USA). For each library preparation, mRNA was purified from 1000 ng total RNA using poly-T oligo-attached magnetic beads. Subsequently, each poly-A enriched sample was fragmented using divalent cations under elevated temperature. The fragmented RNA was synthesized into double-stranded cDNA using SuperScript II Reverse Transcriptase (Invitrogen, Carlsbad, California, USA) and random primers for first strand cDNA synthesis followed by second strand synthesis using DNA Polymerase I and RNAse H for removal of mRNA. Double-stranded cDNA was purified by paramagnetic beads (Agencourt AMPure XP beads, Beckman Coulter). The cDNA products were incubated with Klenow DNA Polymerase and DNA fragments, ligated to Illumina adapters, and purified by paramagnetic beads. Adapter ligated DNA was amplified in a Linker Mediated PCR reaction (LM-PCR) for 11 cycles using Phusion™ DNA Polymerase and Illumina's PE genomic DNA primer set and then purified by paramagnetic beads. Quality and quantity of the finished libraries were assessed using an Agilent DNA1000 chip (Agilent Technologies. Inc., Santa Clara, CA, USA) and Qubit® dsDNA HS Assay Kit (Invitrogen, Carlsbad, California, USA), respectively. Libraries were standardized to 2 μM. Cluster generation was performed using standard Cluster Kit (v3) and the Illumina Cluster Station. Single 100 bp sequencing was performed, using standard SBS chemistry (v4) on an Illumina HiSeq2500 sequencer. Images were analyzed using the standard Illumina Pipeline, version 1.8.2.
RNA sequencing data analysis: Illumina sequencing reads were adapter and quality trimmed using the Skewer trimming program. Quality reads were subsequently aligned to the annotated reference genome using the STAR aligner (43). Quantification of expression for each gene was calculated by RSEM (44), the expected read counts from RSEM were filtered for low/empty values and used for differential gene expression analysis using DESeq2 (45). All remaining genes from the pairwise comparisons were analyzed using Gene Set Enrichment Analysis (GSEA) (46, 47) to identify pathways (based on GO terms (c5.all.v6) from the Molecular Signatures Database (MSigDB (48)) as well as custom gene sets involved in TLR1/2 versus TLR7 ligand activation. GSEA was performed by calculating a ranked vector as log2 fold-change. Analysis was performed using R 3.3.1 (49) and Bioconductor 2.32.0 (50). Venn diagrams were generated using the VennDiagram package.

Entries after “also recorded” stand apart in the source; their conditions may differ.

`CCNCc1nc2c(N)nc3ccccc3c2n1CC(C)(C)O` [Gardiquimod]: in data set [1], the 4-1BB entry is reported as “=”, the BTLA entry is reported as “=/−”, the CD160 result is listed as “−” and the CD244.2 result is “=/−”. Moreover, in data set [1], the LAG3 entry was “=”, the PD-1 entry is given as “−”, the VISTA result is given as “=” and the “T cell activation measured by 4-1BB” value is listed as “activated”. In addition, in data set [1], the “PD-1 expression on activated T cells” value is recorded as “expressed low levels of PD-1; also recorded: significantly reduced” and the “levels of tested checkpoint markers (BTLA, VISTA, CD160, CD244.2)” value was “did not affect”. Further, in data set [2], the “expression of genes associated with Th1-biased cytotoxic effector function (IFNγ, TNFα, granzymes A-C, perforin, T-Bet)” value is listed as “induced”; the “Eomesodermin (EOMES gene) expression” value is on record as “reduced”; the “expression of genes associated with T-cell regulation (including PD-1 and IL-10)” value is reported as “reduced”.

As for Monophosphoryl Lipid A [MPLAs], in data set [1], the 4-1BB result is listed as “=”, the LAG3 result was “=”, the PD-1 entry is on record as “=” and the “PD-1 expression on activated T cells” value is “did not significantly reduce”. In addition, the “PD-1 expression on activated T cells” value in data set [1] (listed as TLR4) is given as “did not lead to PD-1 downregulation”.

In the case of Pam3CSK4, the CTLA-4 expression result in data set [1] (OT-1 T cells activated with SIINFEKL in the presence of TLR ligand) is “increased”. In data set [1], the 4-1BB entry is reported as “=”, the BTLA result is given as “=/−”, the CD160 entry is on record as “−” and the CD244.2 result is given as “=”. In data set [1], the LAG3 entry was “=”, the PD-1 entry was “−”, the VISTA result is recorded as “−” and the “T cell activation measured by 4-1BB” value was “activated”. In addition, in data set [1], the “PD-1 expression on activated T cells” value is on record as “expressed low levels of PD-1; also recorded: significantly reduced” and the “levels of tested checkpoint markers (BTLA, VISTA, CD160, CD244.2)” value is given as “did not affect”. In data set [2], the “expression of genes associated with Th1-biased cytotoxic effector function (IFNγ, TNFα, granzymes A-C, perforin, T-Bet)” value is recorded as “induced”; the “Eomesodermin (EOMES gene) expression” value is recorded as “reduced”; the “expression of genes associated with T-cell regulation (including PD-1 and IL-10)” value is “reduced”.

In the case of Poly(I:C) [PolyI:C], in data set [1], the 4-1BB entry is listed as “=”, the LAG3 entry was “=/+”, the PD-1 result is listed as “=/−” and the “PD-1 expression on activated T cells” value is recorded as “did not significantly reduce”. Also, the “PD-1 expression on activated T cells” value in data set [1] (listed as TLR3) is recorded as “did not lead to decreased PD-1 expression”.

These data come from patent US20240390487A1, “TLR AGONISTS FOR REDUCING ACTIVATION-INDUCED PD-1 EXPRESSION ON T CELLS AND METHODS OF USE” (WISCONSIN ALUMNI RESEARCH FOUNDATION, priority 2016, published 2024).
